From article PMC7156458, “Synthetic biology based construction of biological activity-related library of fungal decalin-containing diterpenoid pyrones” (Nature Communications, 2020)
Several values for one entry are separate records, joined by “and”; a condition that tells them apart may be missing. Identical values can stand only once. Like-named read-outs stand apart in the source and are kept apart here.

Columns and labels:
[1] = system: human immunodeficiency virus-1 (HIV-1); test: anti-HIV MAGI assay; assay type: cell-based; conditions: anti-HIV
Source text: (§1) We examined the inhibitory activities of DDPs against various species of bacteria (both gram-negative and gram-positive bacteria), fungi and viruses. […] In contrast, preliminary screening of the DDPs for anti-viral agents with hepatitis B virus (HBV), measles virus (MV), Epstein-Barr virus (EBV), herpes simplex virus (HSV) and human immunodeficiency virus-1 (HIV-1) indicated their selective inhibition of HIV.

MAGI cells = test: cytotoxicity in the anti-HIV assay (CC50); assay type: cell-based
Source text: as §1
Policy information about cell lines […]
HeLa-CD4-LTR/ !-galactosidase (MAGI) cells provided by Dr. J. Overbaugh through the NIH AIDS Research and Reference […]
MAGI cells were authenticated by the NIH.
Mycoplasma contamination All the cell lines tested negative for mycoplasma contamination.
Commonly misidentified lines No commonly mis-identified cell lines. […]

MCF-7 cells [2] = test: cell cytotoxic effects against MCF-7 cells (72 h), A490; assay type: cell-based, human; conditions: MCF-7, 72 h; for viability at 0.1 µM / viability at 1 µM / viability at 10 µM: Homo sapiens, MCF7, 72 h, read-out: A490 (control =1) ave
Procedure: !" ' ' '! !" ' ' '! !" ' ' '!!" ' ' '!!" ' ' '!!" ' ' '!!" ' ' '!!" ' ' '! !" ' ' '! !" ' ' '! !" ' ' '! !"#$
( % ) * '! '' '# '+ '$ '( '%
! " # $ %& %% %' %( %) %! %"
!" ' ' '! !" ' ' '!!" ' ' '!!" ' ' '!!" ' ' '!!" ' ' '!!" ' ' '! !" ' ' '! !" ' ' '! !" ' ' '! !" ' ' '! […]
Supplementary Fig. 46. a, Cell cytotoxic effects of DDPs against MCF-7 cells (72 h).
dose dependent cytotoxic effects against MCF-7 cells were tested their inhibitory activity against mammosphere
formation. Compound in blue (16) was also performed mammosphere assay as negative control. Data represent
mean±s.d. from three independent replicate experiments. […]
Source data underlying Supplementary Figure 46a are provided in a Source Data file. […]

MCF-7 cells [3] = test: mammosphere formation assay; assay type: cell-based, human; conditions: MCF-7, 5 μM, 7 days; for MFE (%) ave: mean of 3, control 0.87; for MFE (control = 1) ave: relative to control = 1; for MFE (%): single replicates
Procedure: We also evaluated antiproliferative activity against cancer stem cells (CSCs), which are a small sub-population in tumour bulk identified in most cancer cells and clinical samples[52]. CSCs have been a major problem in cancer therapy because they are responsible for recurrence, metastasis and drug resistance to chemotherapeutic agents that affect proliferative cells[53]–[56]. Anti-CSC activity was evaluated by the inhibition of sphere-forming ability, a well-studied method to enrich the CSC-like population, and selective cytotoxicity against one of the most reliable CSC markers, aldehyde dehydrogenase (ALDH)-positive cells. […] Low-toxicity 16 was also added as a negative control. […] We next evaluated the three DDPs that inhibited mammosphere formations against ALDH-positive cells, a functional marker for breast CSCs. MCF-7 cells were treated with 1 μM of 11, 12 or 22, and the ALDH-positive cell population was analysed by using a fluorescence activated cell sorter (Supplementary Fig. 46b). […] Thus, for the first time, we successfully found DDPs with potent antiproliferative effects on the CSC-like population in MCF-7 cells, which may lead to new anti-CSC drugs.
Fig. 5 DDPs show anti-CSC activity in breast cancer cell line MCF-7. a Effect of DDPs on mammosphere formation. After the cells were cultured in the presence of 5 μM DDPs for 7 days, the number of mammospheres was microscopically counted and the percentage of mammosphere-forming cells was determined as mammosphere-forming efficiency (MFE; %). Data represent mean ± s.d. from three independent replicate experiments. P-values were calculated by a two-sided unpaired Student’s t-test, compared with control. b Micrographs show representative images of mammosphere formation from three independent replicate experiments using compound 11, 12, 16, 22. The scale bar, […]. c Effect of DDPs (1 μM, 3 days) on ALDH-positive cells in MCF-7 cells. Data represent mean ± s.d. from three independent replicate experiments. P-values were calculated by a two-sided unpaired Student’s t-test, compared with control. d Dose-dependent effect of compound 12 on ALDH-positive cells in MCF-7 cells. Data represent mean ± s.d. from three independent replicate experiments. P-values were calculated by a two-sided unpaired Student’s t-test. Source data underlying Fig. 5a, c, d are provided in a Source Data file.

[4] = 0.1 µM (DMSO 0.002%), control 1.064
[5] = 1 µM (DMSO 0.02%), control 1.104
[6] = 10 µM (DMSO 0.2%), control 1.049

| SMILES | viability at 0.1 µM (MCF-7 cells [2]; 0.1 µM (DMSO 0.002%)) [%] | viability at 1 µM (MCF-7 cells [2]; 1 µM (DMSO 0.02%)) [%] | viability at 10 µM (MCF-7 cells [2]; 10 µM (DMSO 0.2%)) [%] | A490 ave (MCF-7 cells [2]; [4]) | A490 ave (MCF-7 cells [2]; [5]) | A490 ave (MCF-7 cells [2]; [6]) | MFE (%) ave (MCF-7 cells [3]) [%] | MFE (control = 1) ave (MCF-7 cells [3]) | MFE (%) (MCF-7 cells [3]) | also measured |
| --- | --- | --- | --- | --- | --- | --- | --- | --- | --- | --- |
| Cc1cn([C@H]2C[C@H](N=[N+]=[N-])[C@@H](CO)O2)c(=O)[nH]c1=O [AZT, reference compound] | – | – | – | – | – | – | – | – | – | EC50 ([1]; MAGI assay, read-out: EC50): 29.7 nM; EC50 ([1]; average of numeric determinations, read-out: Avg. EC50): 29.7 nM; CC50 (MAGI cells): > 10000 nM; Cytotoxicity (MAGI cells): >10 µM |
| Cc1oc(=O)cc(O)c1C [Compound 1] | – | – | – | – | – | – | – | – | – | EC50 ([1]; Human immunodeficiency virus 1, MAGI, average of numeric determinations, read-out: Avg. EC50): 76 nM; Cytotoxicity (MAGI cells; single determinations): >10 µM and 9.224 µM and 8.859 µM |
| CC(C)=CCCC1(C)OC1CC/C(C)=C/CC/C(C)=C/Cc1c(O)c(C)c(C)oc1=O (centres unmarked) [Compound 3] | – | – | – | – | – | – | – | – | – | EC50 ([1]; Human immunodeficiency virus 1, MAGI, single determinations, read-out: Efficacy (EC50)): > 10000 nM |
| O=c1[nH]cc(F)c(=O)[nH]1 [Compound 5-FU, 5-fluorouracil, reference compound] | 75.5 | 67.3 | 55.5 | 0.803 | 0.744 | 0.582 | 1.09 | 1.25 | 1.16% and 1.20% and 0.90% | – |
| COc1cccc2c1C(=O)c1c(O)c3c(c(O)c1C2=O)C[C@@](O)(C(=O)CO)C[C@@H]3O[C@H]1C[C@H](N)[C@H](O)[C@H](C)O1 [Dox, doxorubicin, reference compound] | 82.9 | 47.4 | 21 | 0.882 | 0.523 | 0.220 | 0.58 | 0.67 | 0.68% and 0.52% and 0.54% | A490 (MCF-7 cells [2]; 10 µM (DMSO 0.2%), single replicates): 0.193 |
